Assays:
[1] = test system: islets from ankB(+/+) and (+/−) mice; experiment: Intraislet calcium measurements using Fura-2; type: cell-based, mouse
Protocol: Islets from 8-10 month ankB(+/+) and (+/−) mice were isolated as described above and incubated overnight in medium containing 11 mM glucose. […] Islets were incubated 45 min at 37° C. Islets were then affixed to small open perifusion chamber (volume 150 μL) with a coverslip bottom using Puramatrix Peptide Hydrigel (BD Biosciences). Chamber was then mounted on a Zeiss Axiovert epifluorescence inverted microscope fitted with a Plan-Neofluar 16x/0.50 objective. The fluorescence (excitation at 355 or 380 nm) was recorded by a slow-scan charged-coupled device (CCD) camera (Andor Technology) and quantitated using AndorIQ software. All perifusions were performed at 37° C. using perfusion buffer containing either 3 mM glucose, 11 mM glucose, 30 mM KCl in 3 mM glucose, or 0.1 mM carbachol in 3 mM glucose. To assay carbachol effects in the absence of calcium, buffer containing 2 mM EGTA and 0 mM Ca^2+ was used. Data represent the mean+/−SEM of 3-7 individual islet recordings/animal using 6 animals/genotype. Significance was calculated using two-tailed T test.

[2] = test system: islets isolated from ankB (+/+) and (+/−) mice; experiment: Insulin secretion assay, islets from ankB(+/+) and (+/−) mice; type: cell-based, mouse; conditions: for potentiation of glucose-stimulated insulin release: Glp-1 100 nM
Protocol: Islets were isolated from ankB littermates and male Wistar rats by pancreatic perifusion as previously described (28). Islets were maintained in culture medium containing 11 mM glucose until the day of the assay. Insulin secretion was assayed in HEPES balanced salt solution (HBSS) (114 mM NaCl, 4.7 mM KCl, 1.2 mM KH2PO4, 1.16 mM MgSO4, 20 mM HEPES, 2.5 mM CaCl2, 25.5 mM NaHCO3, and 0.2% BSA, pH 7.2). Islets were pre-incubated HBSS containing 3 mM glucose for 2 hours. Insulin secretion was then measured by using static incubation for a 1 h period in HBSS containing 3 mM glucose. Islets were then transferred to HBSS containing 16.7 or 8 mM glucose for 1 hour, and then HBSS containing 16.7 or 8 mM glucose plus 0.1 mM carbachol or 100 nM Glp-1 for 1 hour. Following the incubations, islet samples were normalized for insulin content by extraction with 1 M acetic acid in 0.1% BSA. Static incubation samples and extract samples were analyzed for insulin concentrations via radioimmunoassay with the insulin Coat-a-Count kit (Diagnostic Products, Los Angeles). Values presented represent the mean values+/−SEM.

[3] = test system: wild type rat islets; experiment: Insulin secretion assay, rat islets treated with adenovirus (siRNA knockdown / rescue); type: cell-based; conditions: adenoviral delivery to knockdown islets; p=0.03, n=6
Protocol: INS-1-derived cell line 823/3 was cultured as described previously (28). Small interfering RNA (siRNA) sequences corresponding to rat ankyrin-B siRNA1: GGCCAGAAGATCTCAAGGA (SEQ ID NO:2), siRNA2: GCTGTGTAGCATTTTAACA (SEQ ID NO:3), or a control siRNA which is siRNA 1 mutated at three base sites: GGCCCGAAGAGCTCAAGGA (SEQ ID NO:4), were cloned into vector EHOO6 and used for construction of Ad-ankB siRNA recombinant adenoviruses by the methods described (29). Complementary DNAs encoding human ankyrin-B or ankyrin-B W/W (7, 8) were used to prepare recombinant adenoviruses (AdCMV-h ankB and h ankB RAN) using the AdEasy system (Stratagene catalog number 240010). An adenovirus containing the green fluorescent protein (GFP) gene (AdCMV-_GFP) was used as a control. Purified viruses were incubated with INS-1 823/3 cells or islets at multiplicities of infection (MOI) of 20-50 for 18 h. Assays were undertaken 72 h later.
Islets were isolated from ankB littermates and male Wistar rats by pancreatic perifusion as previously described (28). […] Insulin secretion was then measured by using static incubation for a 1 h period in HBSS containing 3 mM glucose. […] Static incubation samples and extract samples were analyzed for insulin concentrations via radioimmunoassay with the insulin Coat-a-Count kit (Diagnostic Products, Los Angeles). […]

C[N+](C)(C)CCOC(N)=O [carbachol]
reduction in Ca2+ release ([1]; ankB(+/−) islets, carbachol 0.1 mM in buffer containing 5 mM Ca2+): 64%
reduction in intracellular Ca2+ release ([1]; ankB(+/−) vs ankB(+/+) islets, Ca2+-free buffer containing carbachol 0.1 mM): ~79%
reduction in carbachol-stimulated insulin release ([2]; ankB(+/−) islets vs ankB(+/+), carbachol 0.1 mM, p=0.007, n=6): 40%
potentiation of insulin release by carbachol ([2]; wild type islets, stimulatory glucose plus carbachol 0.1 mM): 2.1 fold

full-length human ankyrin-B: full length 220 kD human ankyrin-B, siRNA-resistant, expressed from adenovirus
rescue of impaired carbachol-mediated insulin release [3]: −40%

glucagon-like peptide 1 [Glp-1]
potentiation of glucose-stimulated insulin release ([2]; ankB(+/−) islets, p=0.01, n=6): 2.1 fold
potentiation of glucose-stimulated insulin release ([2]; wild type animals): ~1.6 fold
